Test results reported in US20040024024A1, “Aromatic sulfone hydroxamates and their use as protease inhibitors” (priority 2001, published 2004).

Legend:
Human recombinant MMP-13 = target: T1, Human recombinant MMP-13 (Homo sapiens, UniProt P45452); test: In vitro MMP inhibition, IC50 determination (fluorogenic substrate I); type: biochemical
T1 construct: made in house; host or cells: baculovirus / insect cells
Description: (§1) Several hydroxamates and salts thereof were analyzed in in vitro assays to determine their ability to inhibit the MMP cleavage of peptide substrates. Inhibition (Ki) and IC50 constants were calculated from the assayed hydroxamate-MMP interactions.
(§2) Human recombinant MMP-1, MMP-2, MMP-9, MMP-13, and MMP-14 were used in this assay. All enzymes were prepared in Assignee's laboratories following usual laboratory procedures. Protocols for the preparation and use of these enzymes are available in the scientific literature. See, e.g., Enzyme Nomenclature (Academic Press, San Diego, Calif., 1992) (and the citations therein). See also, Frije et al., J. Biol. Chem., 26(24), 16766-73 (1994).
The expressed proenzyme was first purified over a heparin agarose column, and then over a chelating zinc chloride column. The proenzyme was then activated by APMA for use in the assay. Further details on baculovirus expression systems may be found in, for example, Luckow et al., J. Virol., 67, 4566-79 (1993). See also, O'Reilly et al, Baculovirus Expression Vectors: A Laboratory Manual (W. H. Freeman and Co., New York, N.Y., 1992). See also, King et al., The Baculovirus Expression System: A Laboratory Guide (Chapman & Hall, London, England, 1992).
(§3) All MMPs were activated using 4-aminophenylmercuric acetate (“APMA”, Sigma Chemical, St. Louis, Mo.) or trypsin. MMP-9 also was activated using human recombinant MMP-3 (purified in Assignee's laboratory following standard cloning and purification techniques).
(§4) Two fluorogenic, methoxycoumarin-containing polypeptide substrates were used in the MMP inhibition assays:
(§5) MCA-ProLeuGlyLeuDpaAlaArgNH2 (I)
(§6) Here, “Dpa” is 3-(2,4-dinitrophenyl)-L-2,3-diaminopropionyl group, and “MCA” is 7-methoxycoumarin-4-yl acetyl. Substrate (I) was purchased from Baychem (Redwood City, Calif.), and substrate II was prepared Assignee's laboratory. Substrate I was used in the IC50 determination assays, while substrate II was used in the Ki determination assays. In the absence of MMP inhibitory activity, either substrate is cleaved at the Gly-Leu peptide bond. This cleavage separates the highly fluorogenic peptide from the 2,4-dinitrophenyl quencher, thus resulting in increase of fluorescent intensity.
(§7) The stock solutions of the assayed hydroxamates (or salts thereof) were prepared in 1% dimethyl sulfoxide (DMSO). These stock solutions were diluted in Buffer A (100 mM Tris-HCl, 100 mM NaCl, 10 mM CaCl2, 0.05% polyoxyethylene 23 lauryl ether, pH 7.5) to obtain solutions with different hydroxamate concentrations, i.e., assay solutions with different concentrations of the assayed MMP inhibitory compound. The experiment controls contained the same amount of Buffer A/DMSO as the assayed sample, but contained no hydroxamate (or salt thereof).
(§8) The assays from which the IC50 determinations were made were performed as follows. The MMPs were activated with either trypsin or APMA (4-aminophenylmercuric acetate, Sigma Chemical, St. Louis, Mo.). The assayed hydroxamate samples were, incubated in Microfluorrm White Plates (Dynatech, Chantilly, VA) and analyzed on a Perkin Elmer L550 plate reader (Norwalk, Conn.). The excitation wavelength was 328 nm, and the emission wavelength—415 nm. All samples (assayed hydroxamates and controls) were incubated in separate plates at room temperature in the presence of 4 μM of MMP substrate (I). As stated in the previous paragraph, samples containing varying concentrations of the same assayed hydroxamate were prepared. Inhibition was measured as a reduction in fluorescent intensity as a function of MMP inhibitor concentration.

Human recombinant MMP-2 = target: T2, Human recombinant MMP-2 (Homo sapiens, UniProt P08253); test: as above; type: biochemical
T2 construct: made in house; host or cells: MMP-2-transfected p2AHT2 cells
T2 sequence (P08253 110-660): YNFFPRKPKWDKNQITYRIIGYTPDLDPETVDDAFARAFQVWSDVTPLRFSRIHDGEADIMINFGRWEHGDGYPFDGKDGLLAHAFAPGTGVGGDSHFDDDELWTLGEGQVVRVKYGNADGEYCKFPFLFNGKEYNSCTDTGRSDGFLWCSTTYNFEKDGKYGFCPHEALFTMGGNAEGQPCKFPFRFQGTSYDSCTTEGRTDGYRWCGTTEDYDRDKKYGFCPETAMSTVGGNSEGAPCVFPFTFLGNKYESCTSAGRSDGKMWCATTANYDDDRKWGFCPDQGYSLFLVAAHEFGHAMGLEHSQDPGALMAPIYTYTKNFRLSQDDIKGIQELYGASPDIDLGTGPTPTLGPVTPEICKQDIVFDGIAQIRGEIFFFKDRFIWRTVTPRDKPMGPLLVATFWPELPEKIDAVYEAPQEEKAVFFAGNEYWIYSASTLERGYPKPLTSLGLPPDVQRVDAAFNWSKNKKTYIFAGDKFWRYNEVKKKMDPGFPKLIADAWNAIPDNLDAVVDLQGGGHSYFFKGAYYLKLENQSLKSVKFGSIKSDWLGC
Description: as §1, §2
The MMP-2 proenzyme was purified by gelatin Sepharose chromatography from MMP-2-transfected p2AHT2 cells provided by Dr. Gregory Goldberg of Washington University (St. Louis, Mo.).
as §3, §4, §5, §6, §7, §8

[1] = value outside parentheses (Ki in parenthesis)

SMILES | IC50 (Human recombinant MMP-13; value outside parenthesis) | IC50 (Human recombinant MMP-2; value outside parenthesis) | IC50 (Human recombinant MMP-13; [1]) | IC50 (Human recombinant MMP-2; [1])
COc1ccc(/C(C#N)=C/CCOc2ccc(S(=O)(=O)C3(C(=O)NO)CCOCC3)cc2)cc1 [Example 236] | 3.4 nM | 7.6 nM | – | –
O=C(NO)C1(S(=O)(=O)c2ccc(OCCCc3nc(-c4ccc(C(F)(F)F)cc4)no3)cc2)CCOCC1 [Example 239] | 2.5 nM | 237 nM | – | –
CC(=O)NC(C)(C)CCOc1ccc(S(=O)(=O)C2(C(=O)NO)CCOCC2)cc1 [Example 242] | 203 nM | 2720 nM | – | –
CN(C)c1c(F)cc(-c2noc(CCCOc3ccc(S(=O)(=O)C4(C(=O)NO)CCOCC4)cc3)n2)cc1F [Example 251] | 5.4 nM | 182 nM | – | –
COCCN1CCC(C(=O)NO)(S(=O)(=O)c2ccc(OCCCn3nc(C(F)(F)F)cc3C(F)(F)F)cc2)CC1 [Example 253] | 32.4 nM | 1450 nM | – | –
O=C(CCCOc1ccc(S(=O)(=O)C2(C(=O)NO)CCN(C3CC3)CC2)cc1)C1CCC(O)(c2ccc(Cl)cc2)CC1 (stereo not drawn) [Example 255] | 1.9 nM | 51.3 nM | – | –
COc1ccc2cc(C(=O)CCCCOc3ccc(S(=O)(=O)C4(C(=O)NO)CCN(C5CC5)CC4)cc3)ccc2c1 [Example 265] | 0.2 nM | 40 nM | – | –
O=C(NO)C1(S(=O)(=O)c2ccc(OCCCc3ccc(-c4ccccc4)cc3)cc2)CCOCC1 [Example 270] | 8.1 nM | 522 nM | – | –
O=C(O)CCCOc1ccc(S(=O)(=O)C2(C(=O)NO)CCOCC2)cc1 [Example 273] | 304 nM | 1010 nM | – | –
CCOc1ccc(-c2noc(CCCOc3ccc(S(=O)(=O)C4(C(=O)NO)CCOCC4)cc3)n2)cc1 [Example 275] | 1.7 nM | 115 nM | – | –
O=C(NO)C1(S(=O)(=O)c2ccc(OCCCS(=O)(=O)N3CCC(Oc4ccc(C(F)(F)F)cc4)CC3)cc2)CCOCC1 [Example 279] | 9.4 nM | 15.9 nM | – | –
Cc1cc(C)nc(SCCOc2ccc(S(=O)(=O)C3(C(=O)NO)CCOCC3)cc2)n1 [Example 283] | 29.3 nM | 186 nM | – | –
COc1ccc(OC)c(-c2nnc(CCCOc3ccc(S(=O)(=O)C4(C(=O)NO)CCOCC4)cc3)o2)c1 [Example 291] | – | – | 8 nM | 100 nM
NS(=O)(=O)CCCOc1ccc(S(=O)(=O)C2(C(=O)NO)CCOCC2)cc1 [Example 296] | – | – | 565 nM | 1340 nM
CC(C)N(Cc1ccc(C(=O)CCCOc2ccc(S(=O)(=O)C3(C(=O)NO)CCOCC3)cc2)cc1)C(C)C [Example 298] | – | – | 18.1 nM | 11.9 nM
O=C(CCCOc1ccc(S(=O)(=O)C2(C(=O)NO)CCOCC2)cc1)c1ccc2ccccc2c1 [Example 299] | – | – | 0.1 nM | 3.2 nM
O=C(CCCOc1ccc(S(=O)(=O)C2(C(=O)NO)CCOCC2)cc1)c1ccccc1-c1ccccc1 [Example 300] | – | – | 6.7 nM | 12.5 nM
CCOc1ccc(-c2nnc(CCCOc3ccc(S(=O)(=O)C4(C(=O)NO)CCOCC4)cc3)o2)cc1OCC [Example 303] | – | – | 9.9 nM | 50 nM
O=C(NO)C1(S(=O)(=O)c2ccc(OCCCc3nnc(-c4ccc5ccccc5c4)o3)cc2)CCOCC1 [Example 304] | – | – | 0.2 nM | 139 nM
O=C(CCCOc1ccc(S(=O)(=O)C2(C(=O)NO)CCOCC2)cc1)Nc1cc2ccccc2cc1O [Example 312] | – | – | 0.2 nM | 9.1 nM
O=C(NO)C1(S(=O)(=O)c2ccc(OCCCc3nc4cc5ccccc5cc4o3)cc2)CCOCC1 [Example 313] | – | – | < 0.1 nM | 18.1 nM
COc1cc(SC)ccc1C(=O)NNC(=O)CCCOc1ccc(S(=O)(=O)C2(C(=O)NO)CCOCC2)cc1 [Example 314] | – | – | 2.5 nM | 7.8 nM
O=C(NO)C1(S(=O)(=O)c2ccc(OCCCS(=O)(=O)N3CCOCC3)cc2)CCOCC1 [Example 315] | – | – | 12.7 nM | 12.8 nM
COc1ccc(C(=O)[C@H](O)CCOc2ccc(S(=O)(=O)C3(C(=O)NO)CCOCC3)cc2)cc1 [Example 318] | – | – | 97.3 nM | 615 nM
